Test results: patent US20250109127A1, “METHODS OF USE OF PHENOXYPROPYLAMINE COMPOUNDS TO TREAT DEPRESSION” (Minerva Neurosciences, Inc., priority 2013, published 2025)
Where “and” joins values, the source holds several entries; their conditions need not be identical. Equal values may be shown once.

System: 5-HIAA release in the rat prefrontal cortex
Assay: Microdialysis: 5-HIAA release in prefrontal cortex after I.P. administration
Assay type: in vivo
Details: for 5-HIAA in dialysate, MEAN / 5-HIAA in dialysate, individual animals: Citalopram 10 mg/kg I.P.
Protocol: The aim of the study was to evaluate, using microdialysis, the effects of an intraperitoneal (I.P.) administration in rats of three different doses of SON-117 on dopamine and its metabolites, serotonin and its metabolite (5-HIAA), and norepinephrine levels in prefrontal cortex.
Thirty-two adult male Wistar rats were used for the whole study (4 groups of eight animals planned for the study, Table 1).
Surgery was performed on rats weighing about 300 g at the beginning of the experiments. Rats were anaesthetized with Ketamine (50 mg/kg) & Xylazine (15 mg/kg) by intramuscular administration. The animals were placed in a stereotaxic apparatus in the flat-skull position at a constant setting of −3.3 mm between ear bars and the incisor bar. The animals were treated with a local anesthesic (xylocaine 1%, Astra Zeneca) and an analgesic (Temgesic, from Schering Plough, 0.05 mg/kg, s.c.). A rostrocaudal midline incision was made with a lancet to expose the dorsal skull surface. The “stereotaxic zero” was defined by the Bregma in accordance with Paxinos and Watson's atlas (1986). A hole was drilled in the skull with a drill and the meninges were pierced with a sterile needle to implant a CMA12 guide cannula which later received the dialysis probe.
Coordinates used for implanting guide cannula in prefrontal cortex from Bregma were anteroposterior 3.7 mm, mediolateral 0.8 mm, and dorsoventral −2 mm (top of the probe was at −5 mm). The guide cannula was fixed to the skull with two stainless steel screws (1.88 mm outside diameter) anchored. An application of dental cement was added. A plastic collar allowed each animal to be tethered to a Swivel assembly of the CMA 120 awake animal system. Following surgery, rats were kept in individual cages and allowed to recover for a minimum of 3-5 days before the experimentation. The rats were handled and put in plastic bowl for 10 min at least every day to habituate the animals to their new environment for the dialysis. An I.P. administration with saline was also performed every day.
Dialysis probes (CMA12/3 mm, membrane, 20 kD cut-off, Carnegie Medicine, Stockholm, Sweden), were carefully washed before inserting into the guide cannula. The wash was performed with the artificial cerebrospinal fluid (aCSF) medium (NaCl 147 mM, KCl 2.7 mM, CaCl2 1.2 mM, MgCl2 0.85 mM) at room temperature. The dialysis system was then equilibrated at 20° C. at a perfusion rate of 1 μl/min with a Carnegie pump (CMA100). All catheters (FEP tubing, internal volume of 1.2 μl/10 cm, and tubing adaptors) used for microdialysis were treated in the same conditions.
The probes duly prepared were inserted into the guide cannula and the CMA120 Swivel assembly secured to the animal using a plastic collar. Flow through the dialysis probe with aCSF was maintained at a rate of 1 μl/min during the whole experimentation. The first four fractions (corresponding to 2 hours) were discarded to avoid the effects of parenchymal disturbance and to ensure that an approximate steady-state level was reached. Fractions were then collected over a period of 8.5 h during which time the animals remained quiet. The dialysates were automatically collected with an autosampler (microfraction collector CMA 140, Carnegie Medicin) and stored at −80° C. until analysis. […] Perfusion was then maintained for 7 hours with aCSF. The dialysates (30 μl) were collected into 300 μl vials, transferred into dry ice and then kept frozen (−80° C.) until analysis. Frozen samples were shipped to a partner for analysis. At the end of the microdialysis study, a PBS with colored ink was perfused through the probe in order to visualize the dialyzed area.
Catecholamine assay: Concentrations of dopamine, DOPAC, HVA, 5-HIAA, 5-HT, and norepinephrin were determined for each sample by HPLC coupled with electrochemical detection.

CN(C)CCCC1(c2ccc(F)cc2)OCc2cc(C#N)ccc21 (stereo not drawn) [Citalopram, citalopram, reference compound]
5-HIAA in dialysate, MEAN (T30-T1 h): 112.98 % of respective basal
5-HIAA in dialysate, individual animals (T30-T1 h): 108.67 % of respective basal and 107.01 % of respective basal and 121.99 % of respective basal and 141.67 % of respective basal and 110.50 % of respective basal and 102.40 % of respective basal and 95.39 % of respective basal and 116.20 % of respective basal
5-HIAA in dialysate, MEAN (T1 h 30-T2 h): 89.03 % of respective basal
5-HIAA in dialysate, individual animals (T1 h 30-T2 h): 79.21 % of respective basal and 80.54 % of respective basal and 115.42 % of respective basal and 91.93 % of respective basal and 89.59 % of respective basal and 74.91 % of respective basal and 97.01 % of respective basal and 83.65 % of respective basal
5-HIAA in dialysate, MEAN (T1 h-T1 h 30): 101.94 % of respective basal
5-HIAA in dialysate, individual animals (T1 h-T1 h 30): 100.18 % of respective basal and 85.46 % of respective basal and 131.13 % of respective basal and 121.97 % of respective basal and 98.30 % of respective basal and 88.97 % of respective basal and 88.75 % of respective basal and 100.76 % of respective basal
5-HIAA in dialysate, MEAN (T2 h 30-T3 h): 72.04 % of respective basal
5-HIAA in dialysate, individual animals (T2 h 30-T3 h): 51.39 % of respective basal and 53.65 % of respective basal and 94.55 % of respective basal and 76.96 % of respective basal and 86.07 % of respective basal and 61.11 % of respective basal and 78.96 % of respective basal and 73.66 % of respective basal
5-HIAA in dialysate, MEAN (T2 h-T2 h 30): 82.39 % of respective basal
5-HIAA in dialysate, individual animals (T2 h-T2 h 30): 86.10 % of respective basal and 66.06 % of respective basal and 115.98 % of respective basal and 81.96 % of respective basal and 87.60 % of respective basal and 62.15 % of respective basal and 79.47 % of respective basal and 79.79 % of respective basal
5-HIAA in dialysate, MEAN (T3 h 30-T4 h): 74.61 % of respective basal
5-HIAA in dialysate, individual animals (T3 h 30-T4 h): 73.28 % of respective basal and 61.52 % of respective basal and 99.49 % of respective basal and 73.39 % of respective basal and 75.64 % of respective basal and 59.18 % of respective basal and 77.94 % of respective basal and 76.45 % of respective basal
5-HIAA in dialysate, MEAN (T3 h-T3 h 30): 73.07 % of respective basal
5-HIAA in dialysate, individual animals (T3 h-T3 h 30): 74.34 % of respective basal and 48.79 % of respective basal and 107.40 % of respective basal and 68.89 % of respective basal and 77.21 % of respective basal and 56.57 % of respective basal and 77.95 % of respective basal and 73.43 % of respective basal
5-HIAA in dialysate, MEAN (T4 h 30-T5 h): 71.07 % of respective basal
5-HIAA in dialysate, individual animals (T4 h 30-T5 h): 75.13 % of respective basal and 59.79 % of respective basal and 90.52 % of respective basal and 59.71 % of respective basal and 66.71 % of respective basal and 59.77 % of respective basal and 77.37 % of respective basal and 79.55 % of respective basal
5-HIAA in dialysate, MEAN (T4 h-T4 h 30): 73.18 % of respective basal
5-HIAA in dialysate, individual animals (T4 h-T4 h 30): 72.77 % of respective basal and 52.24 % of respective basal and 97.15 % of respective basal and 67.66 % of respective basal and 75.69 % of respective basal and 64.72 % of respective basal and 80.07 % of respective basal and 75.12 % of respective basal
5-HIAA in dialysate, MEAN (T5 h 30-T6 h): 68.38 % of respective basal
5-HIAA in dialysate, individual animals (T5 h 30-T6 h): 55.76 % of respective basal and 56.52 % of respective basal and 86.58 % of respective basal and 66.99 % of respective basal and 65.74 % of respective basal and 68.20 % of respective basal and 71.48 % of respective basal and 75.45 % of respective basal
5-HIAA in dialysate, MEAN (T5 h-T5 h 30): 69.50 % of respective basal
5-HIAA in dialysate, individual animals (T5 h-T5 h 30): 50.96 % of respective basal and 91.09 % of respective basal and 61.61 % of respective basal and 64.79 % of respective basal and 60.00 % of respective basal and 84.10 % of respective basal and 73.94 % of respective basal
5-HIAA in dialysate, MEAN (T6 h 30-T7 h): 67.44 % of respective basal
5-HIAA in dialysate, individual animals (T6 h 30-T7 h): 61.13 % of respective basal and 52.63 % of respective basal and 87.81 % of respective basal and 64.43 % of respective basal and 57.20 % of respective basal
5-HIAA in dialysate, MEAN (T6 h-T6 h 30): 63.81 % of respective basal
5-HIAA in dialysate, individual animals (T6 h-T6 h 30): 60.01 % of respective basal and 53.66 % of respective basal and 90.97 % of respective basal and 62.02 % of respective basal and 55.94 % of respective basal and 67.93 % of respective basal and 47.86 % of respective basal and 72.09 % of respective basal
5-HIAA in dialysate, MEAN (T-30 min-T0 (pre-dose)): 102.91 % of respective basal
5-HIAA in dialysate, MEAN (T-1 h 30-T-1 h (pre-dose)): 97.47 % of respective basal
5-HIAA in dialysate, MEAN (T-1 h-T-30 min (pre-dose)): 98.99 % of respective basal
5-HIAA concentration in prefrontal cortex, significant slight increase (citalopram 10 mg/kg IP, at 0.5 h and 1 h): 113%
